Measured values from patent publication US11739098B2 (BRISTOL-MYERS SQUIBB COMPANY, priority 2017, dated 2023).

Legend:
Format in all cases: cell-based
human TLR9 = molecular target: T1, human TLR9 (Homo sapiens, UniProt Q9NR96); test: TLR9 inhibition reporter assay (HEK-Blue cells, SEAP reporter, ODN2006 stimulation); conditions: HEK-Blue cells overexpressing human TLR9, SEAP reporter, ODN2006 5 nM
T1 construct: host or cells: HEK-Blue cells (HEK293-derived reporter line)
T1 sequence (Q9NR96 26-1032): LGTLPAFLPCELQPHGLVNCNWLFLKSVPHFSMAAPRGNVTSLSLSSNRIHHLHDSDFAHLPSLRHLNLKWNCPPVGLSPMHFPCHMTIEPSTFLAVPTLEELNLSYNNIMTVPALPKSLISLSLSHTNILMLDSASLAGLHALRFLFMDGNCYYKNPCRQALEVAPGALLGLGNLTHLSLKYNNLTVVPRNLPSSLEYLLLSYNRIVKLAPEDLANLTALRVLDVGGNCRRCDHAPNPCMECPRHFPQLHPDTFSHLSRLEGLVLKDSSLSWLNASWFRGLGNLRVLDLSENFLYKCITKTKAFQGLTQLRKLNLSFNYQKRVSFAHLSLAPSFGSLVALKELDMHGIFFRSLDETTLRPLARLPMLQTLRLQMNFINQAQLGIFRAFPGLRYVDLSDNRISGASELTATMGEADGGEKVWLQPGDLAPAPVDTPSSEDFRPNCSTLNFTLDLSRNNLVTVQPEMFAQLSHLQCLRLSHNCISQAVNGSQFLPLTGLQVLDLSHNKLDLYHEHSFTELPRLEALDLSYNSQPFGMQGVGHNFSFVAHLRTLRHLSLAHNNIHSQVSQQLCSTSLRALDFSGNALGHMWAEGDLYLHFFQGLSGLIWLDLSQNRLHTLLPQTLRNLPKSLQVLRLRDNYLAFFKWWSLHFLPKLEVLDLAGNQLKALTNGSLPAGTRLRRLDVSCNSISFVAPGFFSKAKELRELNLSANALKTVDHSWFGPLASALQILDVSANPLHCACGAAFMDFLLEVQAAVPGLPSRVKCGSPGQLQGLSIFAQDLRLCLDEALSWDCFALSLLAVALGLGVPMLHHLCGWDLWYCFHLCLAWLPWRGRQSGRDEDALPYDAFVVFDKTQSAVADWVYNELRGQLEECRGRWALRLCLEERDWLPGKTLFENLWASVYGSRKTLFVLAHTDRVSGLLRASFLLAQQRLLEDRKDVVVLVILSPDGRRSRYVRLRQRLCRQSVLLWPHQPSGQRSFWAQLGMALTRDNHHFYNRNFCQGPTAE
Procedure, shortened: (§1)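 Percent inhibition of agonist-induced SEAP secretion in HEK-Blue cells after 22 h at 37 °C. Stimuli: 7.5 μM gardiquimod, 15.9 μM R848, 5 nM ODN2006 for TLR7, TLR8 and TLR9, added after 30 min compound exposure over a 0.05 nM–50 μM range.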

human TLR8 = molecular target: T2, human TLR8 (Homo sapiens, UniProt Q9NR97); test: TLR8 inhibition reporter assay (HEK-Blue cells, SEAP reporter, R848 stimulation); conditions: HEK-Blue cells overexpressing human TLR8, SEAP reporter, R848 15.9 μM
T2 construct: host or cells: HEK-Blue cells (HEK293-derived reporter line)
T2 sequence (Q9NR97 27-1041): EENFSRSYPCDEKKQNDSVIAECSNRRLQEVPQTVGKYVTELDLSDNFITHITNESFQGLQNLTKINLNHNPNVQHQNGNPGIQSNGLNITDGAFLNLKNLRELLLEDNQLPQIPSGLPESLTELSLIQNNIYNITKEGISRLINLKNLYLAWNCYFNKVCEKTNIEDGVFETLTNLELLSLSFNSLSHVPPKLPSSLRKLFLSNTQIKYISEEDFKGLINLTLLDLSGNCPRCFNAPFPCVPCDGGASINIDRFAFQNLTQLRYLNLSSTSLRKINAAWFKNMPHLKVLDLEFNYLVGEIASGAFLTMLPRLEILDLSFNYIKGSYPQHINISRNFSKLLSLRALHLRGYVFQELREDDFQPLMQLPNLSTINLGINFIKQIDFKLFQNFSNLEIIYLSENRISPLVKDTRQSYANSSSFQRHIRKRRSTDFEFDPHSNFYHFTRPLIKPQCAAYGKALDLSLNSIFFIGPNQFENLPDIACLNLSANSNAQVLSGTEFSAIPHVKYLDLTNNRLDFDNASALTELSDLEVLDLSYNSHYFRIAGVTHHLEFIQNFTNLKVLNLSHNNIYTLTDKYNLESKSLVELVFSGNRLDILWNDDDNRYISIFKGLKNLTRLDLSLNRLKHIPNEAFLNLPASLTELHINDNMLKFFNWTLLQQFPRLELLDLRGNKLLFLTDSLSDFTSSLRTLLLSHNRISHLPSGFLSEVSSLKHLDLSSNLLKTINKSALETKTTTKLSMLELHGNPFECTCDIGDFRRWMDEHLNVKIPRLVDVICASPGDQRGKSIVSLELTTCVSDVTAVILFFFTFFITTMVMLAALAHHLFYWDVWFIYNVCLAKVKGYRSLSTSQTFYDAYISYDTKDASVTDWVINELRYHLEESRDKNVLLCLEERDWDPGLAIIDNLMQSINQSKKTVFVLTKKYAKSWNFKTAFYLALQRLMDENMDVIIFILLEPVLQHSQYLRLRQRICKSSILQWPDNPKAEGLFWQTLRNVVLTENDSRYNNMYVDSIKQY
Procedure, shortened: as §1

human TLR7 = molecular target: T3, human TLR7 (Homo sapiens, UniProt Q9NYK1); test: TLR7 inhibition reporter assay (HEK-Blue cells, SEAP reporter, gardiquimod stimulation); conditions: HEK-Blue cells overexpressing human TLR7, SEAP reporter, gardiquimod 7.5 μM
T3 construct: host or cells: HEK-Blue cells (HEK293-derived reporter line)
T3 sequence (Q9NYK1 27-1049): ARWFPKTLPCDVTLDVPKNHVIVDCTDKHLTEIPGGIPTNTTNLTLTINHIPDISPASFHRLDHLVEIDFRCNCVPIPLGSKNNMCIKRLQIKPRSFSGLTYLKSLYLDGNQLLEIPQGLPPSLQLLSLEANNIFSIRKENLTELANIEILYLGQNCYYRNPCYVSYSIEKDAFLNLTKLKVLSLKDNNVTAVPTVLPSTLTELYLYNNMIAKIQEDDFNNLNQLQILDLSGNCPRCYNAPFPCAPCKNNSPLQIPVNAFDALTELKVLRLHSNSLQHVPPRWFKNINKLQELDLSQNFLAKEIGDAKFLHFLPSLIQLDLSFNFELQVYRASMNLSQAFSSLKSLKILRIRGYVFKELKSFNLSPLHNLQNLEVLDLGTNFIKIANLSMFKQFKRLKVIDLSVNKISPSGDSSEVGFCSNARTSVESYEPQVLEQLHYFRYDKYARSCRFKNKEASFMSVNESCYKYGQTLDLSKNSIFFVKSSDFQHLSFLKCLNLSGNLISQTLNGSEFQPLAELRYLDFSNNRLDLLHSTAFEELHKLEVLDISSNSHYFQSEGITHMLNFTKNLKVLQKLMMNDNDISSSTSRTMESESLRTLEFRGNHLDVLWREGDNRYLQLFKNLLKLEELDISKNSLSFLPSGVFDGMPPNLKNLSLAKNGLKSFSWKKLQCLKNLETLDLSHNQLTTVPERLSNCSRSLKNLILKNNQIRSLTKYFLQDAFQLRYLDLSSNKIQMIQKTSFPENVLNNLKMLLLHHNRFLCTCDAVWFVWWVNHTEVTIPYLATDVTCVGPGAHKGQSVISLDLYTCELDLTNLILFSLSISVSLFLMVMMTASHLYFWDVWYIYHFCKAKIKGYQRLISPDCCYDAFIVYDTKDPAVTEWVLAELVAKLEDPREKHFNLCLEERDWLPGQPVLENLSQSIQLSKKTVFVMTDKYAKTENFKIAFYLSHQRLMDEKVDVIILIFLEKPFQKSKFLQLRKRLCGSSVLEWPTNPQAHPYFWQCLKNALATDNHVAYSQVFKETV
Procedure, shortened: as §1

SMILES	IC50 (human TLR9)	IC50 (human TLR8)	IC50 (human TLR7)
Cc1cc2[nH]c(-c3ccnc4[nH]ncc34)c(C(C)C)c2cc1C1CCN(C2CCN(C(C)C)CC2)CC1 [Example 826, 4-(3-isopropyl-5-(1′-isopropyl-[1,4′-bipiperidin]-4-yl)-6-methyl-1H-indol-2-yl)-1H-pyrazolo[3,4-b]pyridine]	100 to 1000 nM	< 100 nM	< 100 nM
Cc1cc2cc(-c3[nH]c4ccc(C5CCN(CC(=O)N(C)C)CC5)cc4c3C(C)C)cc(CC(C)C)n2n1 [Example 393, 2-(4-(2-(7-isobutyl-2-methylpyrazolo[1,5-a]pyridin-5-yl)-3-isopropyl-1H-indol-5-yl)piperidin-1-yl)-N,N-dimethylacetamide]	1000 to 50000 nM	> 3130 nM	> 3130 nM
CC(C)c1c(-c2ccnc3[nH]ncc23)[nH]c2cc(C(F)(F)F)c(C3CCN(CC4CCN(C(C)C)C4)CC3)cc12 (stereo not drawn) [Example 854, 4-(3-isopropyl-5-(1-((1-isopropylpyrrolidin-3-yl)methyl)piperidin-4-yl)-6-(trifluoromethyl)-1H-indol-2-yl)-1H-pyrazolo[3,4-b]pyridine]	100 to 1000 nM	100 to 1000 nM	< 100 nM
Cc1cc(-c2[nH]c3ccc(C4CCN(C(=O)CCN5CCCCC5)CC4)cc3c2C(C)C)cn2nnnc12 [Example 629, 1-(4-(3-isopropyl-2-(8-methyltetrazolo[1,5-a]pyridin-6-yl)-1H-indol-5-yl)piperidin-1-yl)-3-(piperidin-1-yl)propan-1-one]	1000 to 50000 nM	< 100 nM	< 100 nM
CC(C)c1c(-c2ccnc3[nH]ncc23)[nH]c2ccc(C3CCN(Cc4ccc(N5CCOCC5)cc4)CC3)cc12 [Example 912, 4-(4-((4-(3-isopropyl-2-(1H-pyrazolo[3,4-b]pyridin-4-yl)-1H-indol-5-yl)piperidin-1-yl)methyl)phenyl)morpholine]	100 to 1000 nM	< 100 nM	< 100 nM
CNC(=O)CN1CCC(c2ccc3[nH]c(-c4nn5ncnc5c(C)c4C)c(C(C)C)c3c2)CC1 [Example 279, 2-(4-(2-(7,8-dimethyl-[1,2,4]triazolo[1,5-b]pyridazin-6-yl)-3-isopropyl-1H-indol-5-yl)piperidin-1-yl)-N-methylacetamide]	1000 to 50000 nM	< 100 nM	< 100 nM
CNCCN1CCC(c2ccc3[nH]c(-c4cncc5ccccc45)c(C)c3c2)CC1 [Example 663, 2-(4-(2-(isoquinolin-4-yl)-3-methyl-1H-indol-5-yl)piperidin-1-yl)-N-methylethan-1-amine]	100 to 1000 nM	> 3130 nM	1000 to 50000 nM

Further lines, results first:

IC50 (human TLR9)	IC50 (human TLR8)	IC50 (human TLR7)	SMILES
100 to 1000 nM	100 to 1000 nM	< 100 nM	Cc1cn2cc(-c3[nH]c4ccc(C5CCNCC5)cc4c3C(C)C)ccc2n1 [Example 115, 6-(3-isopropyl-5-(piperidin-4-yl)-1H-indol-2-yl)-2-methylimidazo[1,2-a]pyridine]
100 to 1000 nM	100 to 1000 nM	100 to 1000 nM	CCc1c(-c2cnc3cn[nH]c3c2)[nH]c2ccc(C3CCNCC3)cc12 [Example 62, 6-(3-ethyl-5-(piperidin-4-yl)-1H-indol-2-yl)-1H-pyrazolo[4,3-b]pyridine]
1000 to 50000 nM	< 100 nM	< 100 nM	CC(C)c1c(-c2cc(Cl)c3ncccc3c2)[nH]c2ccc(C3CCNCC3)cc12 [Example 139, 8-chloro-6-(3-isopropyl-5-(piperidin-4-yl)-1H-indol-2-yl)quinoline]
1000 to 50000 nM	1000 to 50000 nM	100 to 1000 nM	CC(C)c1c(-c2ccc3c(O)noc3c2)[nH]c2ccc(C3CCNCC3)cc12 [Example 5, 6-(3-isopropyl-5-(piperidin-4-yl)-1H-indol-2-yl)benzo[d]isoxazol-3-ol]
> 50000 nM	100 to 1000 nM	100 to 1000 nM	CC(C)c1c(-c2ccnc3[nH]ncc23)[nH]c2ccc(C3CCN(C(=O)CN4CCNC(=O)C4)CC3)cc12 [Example 587, 4-(2-(4-(3-isopropyl-2-(1H-pyrazolo[3,4-b]pyridin-4-yl)-1H-indol-5-yl)piperidin-1-yl)-2-oxoethyl) piperazin-2-one]
100 to 1000 nM	< 100 nM	< 100 nM	Cc1cc(-c2[nH]c3ccc(C4CCN(CC(C)(C)O)CC4)cc3c2C(C)C)cn2ccnc12 [Example 774, 1-(4-(3-isopropyl-2-(8-methylimidazo[1,2-a]pyridin-6-yl)-1H-indol-5-yl)piperidin-1-yl)-2-methylpropan-2-ol]
100 to 1000 nM	100 to 1000 nM	< 100 nM	Cc1nc2c(C)cc(-c3[nH]c4ccc(C5CCNCC5)cc4c3C(C)C)cn2c1C [Example 132, 6-(3-isopropyl-5-(piperidin-4-yl)-1H-indol-2-yl)-2,3,8-trimethylimidazo[1,2-a]pyridine]
1000 to 50000 nM	< 100 nM	< 100 nM	CC(C)c1c(-c2cc(C(F)(F)F)c3nccn3c2)[nH]c2ccc(C3CCN(C(C)C)CC3)cc12 [Example 942, 6-(3-isopropyl-5-(1-isopropylpiperidin-4-yl)-1H-indol-2-yl)-8-(trifluoromethyl)imidazo[1,2-a]pyridine]
